Results from PubChem BioAssay AID1645848.
Converted amounts (≈) assume the structure as drawn.

Conditions: buffer; pH 7.4; 6.0 h; 150.0 µM

SMILES	solubility kinetic [µg/mL]
Cc1ccc(N2CCC(CNc3nc(-c4ccccc4C(C)C)ncc3C)CC2)cn1	19.8 (≈ 47.7 µM)
CC(=O)NCCNC(=O)c1ccc(-c2ncc3cnc(-c4cccc(F)c4)cn23)cc1	> 92
CN([C@@H](Cc1ccc(OS(=O)(=O)c2cccc3cnccc23)cc1)C(=O)N1CCN(c2ccccc2)CC1)S(=O)(=O)c1cccc2cnccc12	1.32 (≈ 1.83 µM)
Brc1ccc(-c2csc(N3CCOCC3)n2)cc1	1.12 (≈ 3.44 µM)
Cc1ccc(S(=O)(=O)Nc2cnccc2C(=O)Nc2ccc(-c3nc4ccccc4[nH]3)cc2)cc1	< 1
CCOc1ccc(C2C(C(=O)Nc3ccccc3OC)=C(C)Nc3c(C(=O)Nc4cccc(C)c4)cnn32)cc1 (stereo not drawn)	< 1
CC(C)Oc1cccc(-c2cnc(N3CCC(C(N)=O)CC3)s2)c1	1.43 (≈ 4.15 µM)
O=C(NCCCn1ccnc1)c1ccc(-c2ncc3cnc(-c4cccc(F)c4)cn23)cc1	32.5 (≈ 73.9 µM)
Cc1ccc(S(=O)(=O)Nc2ccccc2C(=O)Nc2ccc(-c3ccccc3)cc2)cc1	< 1
O=C(Nc1nc(-c2ccccc2)cs1)c1ccncc1NS(=O)(=O)c1ccc(F)c(F)c1	49.8 (≈ 105 µM)
O=C(Nc1cccc(C(F)(F)F)c1)c1ccccc1NC(=O)C1CCCCC1	< 1
COc1ccc(NC(=O)c2[nH]c(C)c(C(C)=O)c2C)cc1S(=O)(=O)N(C)C	3.68 (≈ 9.34 µM)
Oc1ccc(CNc2ccccc2F)c2cccnc12	4.4 (≈ 16.4 µM)
Cc1cccc(CN2CCN(c3ccccn3)CC2)c1	30.9 (≈ 115 µM)
Nc1nc(N)c2c(OCC3CCN(Cc4ccccc4F)CC3)cccc2n1	> 56
COc1ccccc1N1CCN(C2CCCCC2NS(=O)(=O)c2ccccc2)CC1 (stereo not drawn)	2.68 (≈ 6.25 µM)
S=C(NCCCc1cnc[nH]1)NCCCN(Cc1ccc(Cl)c(Cl)c1)c1ccc(Br)cn1	< 1
CC(C)(C)C(O)C(Oc1ccc(Cl)cc1)n1cncn1 (stereo not drawn)	> 44
Cc1ccnc(NC(=S)N2CCN(c3cccc(C(F)(F)F)c3)C[C@@H]2C)c1	3.88 (≈ 9.84 µM)
O=C(NC(c1ccccc1)c1cc(Cl)c2cccnc2c1O)c1cccnc1 (stereo not drawn)	< 1
CNc1ccc(Br)cc(C(=O)/C=C/c2ccc(OC)cc2OC)c1=O	1.94 (≈ 4.8 µM)
CN([C@@H](Cc1ccc(O[S+](=O)([O-])c2cccc3cnccc23)cc1)C(=O)N1CCN(C(=O)OCc2ccccc2)CC1)[S+](=O)([O-])c1cccc2cnccc12	1.26 (≈ 1.61 µM)

SMILES	solubility kinetic [µg/mL]
CC1=C(C(=O)Nc2nccs2)C(c2ccccc2Br)N=C(Nc2nc3ccccc3o2)N1 (stereo not drawn)	< 1
CC(=O)c1c(C)[nH]c(C(=O)Nc2ccc(C)c(S(=O)(=O)Nc3ccc(Br)cc3)c2)c1C	< 1
O=c1[nH]c(C2CCN(CC3CCCCC3)CC2)nn1Cc1ccccc1	> 52
Cc1noc(C)c1C(=O)N1CCC2(CCCN(C(c3ccccc3)c3ccccc3)C2)CC1	1.15 (≈ 2.6 µM)
CC1=C(C(=O)Nc2ccc(Cl)cc2)C(c2ccccc2C)n2ncc(C(=O)Nc3ccc(C)cc3)c2N1 (stereo not drawn)	< 1
Cc1ccccc1NC(=O)Nc1cccs1	> 34
O=C(NC1CCCc2c1[nH]c1c(Cl)cccc21)c1ccc2c(c1)OCO2 (stereo not drawn)	< 1
CCOc1ccccc1N1CC(c2nc3ccccc3n2CCOc2ccc(C(C)(C)C)cc2)CC1=O (stereo not drawn)	< 1
COc1ccccc1C(=O)Nc1nc2nc(C)cc(=O)n2[nH]1	> 44
COc1cccc(CNc2ccc([S+](=O)([O-])Nc3ccccc3)cc2)c1Cl	< 1
O=c1[nH]c(N2CCOCC2)nc2c1CCN(Cc1cc(Cl)ccc1F)CC2	28.6 (≈ 72.7 µM)
NC(=O)C1CCN(c2nc(-c3ccccc3N)cs2)CC1	29.4 (≈ 97.1 µM)
COc1cc(Nc2nc(-c3ccncc3)nc3ccccc23)ccc1F	< 1
O=C(Nc1nc(-c2ccc(Cl)s2)cs1)c1cccs1	< 1
O=S(=O)(Nc1cccc2ccccc12)c1ccc(NCc2cccc(Cl)c2O)cc1	< 1
COc1ccc(NS(=O)(=O)c2ccc(C)c(C(=O)Nc3ccc4oc(C)nc4c3)c2)cc1	8.77 (≈ 19.4 µM)
CC(C)c1c(-c2ccccc2)nc2c(C#N)c[nH]n2c1=O	> 41
CCN(CC)S(=O)(=O)c1ccc(N2CCCC2)c(NS(=O)(=O)c2ccccc2)c1	< 1
CCc1ccc(NC(=O)c2[nH]c(C)c(C(C)=O)c2C)cc1S(=O)(=O)Nc1ccc(C#N)cc1	2.19 (≈ 4.72 µM)
Cn1c2ccccc2c(=O)c2c(=O)n(-c3ccccc3)c(C3CCCCC3)nc21	< 1
c1ccc2c(N3CCOCC3)nc(-c3ccncc3)nc2c1	> 43
O=S(=O)(Nc1ccccc1N1CCCCC1)c1ccc(Cl)s1	3.68 (≈ 10.3 µM)

SMILES	solubility kinetic [µg/mL]
Cc1nnc2c3ccccc3nc(N3CCN(c4ccccc4)CC3)n12	< 1
CC(=O)c1c(C)[nH]c(C(=O)Nc2cccc(S(=O)(=O)N3CCOCC3)c2)c1C	> 60
CCc1cccc(NC(=O)C(Cc2ccccc2)NS(=O)(=O)c2cccs2)c1 (stereo not drawn)	< 1
COc1ccc(-c2nc3ccc(C4=NNC(=O)CC4C)cc3[nH]2)cc1 (stereo not drawn)	< 1
Fc1cc(Nc2nc(-c3ccncc3)nc3ccccc23)ccc1-c1ccc(F)c(F)c1F	< 1
CCCc1cc(=O)oc2c3c(c4c(c12)OC(C)(C)C=C4)OC(C)C(C)C3O (stereo not drawn)	< 1
CSc1nn(Cc2cccc(C)c2)c(N)c1S(=O)(=O)c1ccccc1	< 1
Cc1noc(C)c1C(=O)N1CCC2(CCCN(Cc3ccccc3)C2)CC1	< 1
Fc1cccc(-c2ccc(Nc3nc(-c4ccncc4)nc4ccccc34)cc2F)c1	< 1
O=C(Cn1ccn2nc3c(c2c1=O)CCCCC3)Nc1ccc2c(c1)OCO2	< 1
Cn1cnc(S(=O)(=O)Nc2cnccc2C(=O)Nc2nc(-c3ccccc3)cs2)c1	> 65
O=S(=O)(Nc1cccc2cccnc12)c1ccc(NCc2ccc(Br)cc2O)cc1	< 1
CN(C)c1cc(-c2nc(Nc3ccc(F)c(F)c3)c3ccccc3n2)ccn1	< 1
COc1cccc(CNc2ccc(S(=O)(=O)Nc3ccc(N4CCNCC4)cc3)cc2)c1O	58.3 (≈ 124 µM)
COc1ccc(OC)c(-c2nnc3ccc(-c4ccc(OC)c(O[C@@H]5CCOC5)c4)nn23)c1	> 66
O=[S+]([O-])(Nc1ccc2ccccc2c1)c1ccc(NCc2ccc(Cl)cc2O)cc1	< 1
CCOc1cc(CNc2ccc(O)cc2)ccc1OCc1ccc(Cl)cc1	4.36 (≈ 11.4 µM)
CCOc1ccc(CCNC(=O)c2cc3sccc3n2CCN(C)C)cc1OCC	> 63
Cc1cc(-c2nnc3n2CCCCC3)c(C)n1-c1cccc(Cl)c1	36.5 (≈ 107 µM)
COc1ccc(-c2noc(CSc3nnc(Cc4ccccc4)n3-c3ccc(F)cc3)n2)cc1	< 1

More lines, now with the values ahead:

solubility kinetic [µg/mL]	SMILES
< 1	Cc1ccc(C(=O)N2CCc3cc(-c4nc(NC(=O)Cc5ccc6c(c5)OCO6)sc4C)ccc32)cc1
57.3 (≈ 101 µM)	CN1CCN(Cc2ccc(NC(=O)Cc3ccc(Oc4cc(NC(=O)C5CC5)ncn4)cc3)cc2C(F)(F)F)CC1
< 1	Cc1ccc(S(=O)(=O)Nc2cccc(C(=O)Nc3nc(-c4ccccc4)cs3)c2Cl)cc1
22 (≈ 35.5 µM)	CNC(=O)Cn1cc(-c2ccc3c(c2)C(F)CC32NC(=O)N(CC(=O)N(Cc3ccc(F)cc3)[C@@H](C)C(F)(F)F)C2=O)cn1 (stereo partly drawn)
32.7 (≈ 81.9 µM)	COc1ccc(NC(C)=O)cc1S(=O)(=O)Nc1ccc(Br)cc1
> 73	CN[C@@H](C)C(=O)N[C@@H]1C(=O)N(Cc2c(C)ccc3ccccc23)c2ccc(C#N)cc2N(C(C)=O)[C@H]1C
4.07 (≈ 7.96 µM)	Cc1cccc(C(=O)N2CCc3cc(-c4nc(NC(=O)Cc5ccc6c(c5)OCO6)sc4C)ccc32)c1
> 45	Clc1cccc(COc2cncc(N3CCNCC3)n2)c1
< 1	Cc1noc(C)c1-c1ccc2ncnc(NCc3cccc(Cl)c3)c2c1
< 1	CC(C)Oc1ccccc1C(=O)Nc1nc(-c2ccccc2)cs1
< 1	Cc1ccc(N2CCN(c3cnn(-c4nc5ccccc5s4)c(=O)c3Cl)CC2C)cc1 (stereo not drawn)
> 60	CCOc1cc(=O)n2c(c1C(=O)Nc1cc(OC)c(Cl)cc1OC)CCCC2
< 1	O=C(Nc1ccc(S(=O)(=O)N2CCN(Cc3ccccc3)CC2)cc1)c1cnccn1
< 1	CC(C)(C#N)c1ccc(N2C(=O)OCc3cnc4ccc(-c5cnc6ccccc6c5)cc4c32)cc1
< 1	O=C(NC1CCCc2c1[nH]c1ccc(Cl)cc21)c1ccncc1 (stereo not drawn)
5.11 (≈ 11.5 µM)	O=C(Nc1ccccc1)C1CCN(c2nc(-c3ccc(Br)cc3)cs2)CC1
< 1	COC(=O)c1cccc(NC(=O)c2cnc(-c3ccc(F)cc3)nc2-c2ccncc2)c1

solubility kinetic [µg/mL]	SMILES
< 1	CN1CCN(c2cc(-c3nc(Nc4ccc(F)c(F)c4)c4ccccc4n3)ccn2)CC1
< 1	COC(=O)Nc1nc2ccc(Sc3ccccc3)cc2[nH]1
66.8 (≈ 154 µM)	CN(C)CCNC(=O)c1nc2nc(-c3ccccc3)c(-c3cccc(Cl)c3)cc2n1C
20.5 (≈ 55.9 µM)	NC(=O)C1CCN(c2nc(-c3cccc(Br)c3)cs2)CC1
> 51	COc1ccc2[nH]c(S(=O)Cc3ncc(C)c(OC)c3C)nc2n1 (stereo not drawn)
38.8 (≈ 85.4 µM)	O=C(Nc1nc(-c2ccccc2)cs1)c1ccncc1NS(=O)(=O)c1ccccc1F
1.16 (≈ 2.68 µM)	CC(=O)c1ccc(N2CCN(S(=O)(=O)c3cc4c(cc3Cl)NC(=O)C4)CC2)cc1
> 65	CCN1CCN(c2ccc(Nc3ccc(-c4ccc(C(N)=O)cc4)n4ncnc34)cc2)CC1
44.5 (≈ 109 µM)	Nc1ccccc1OCCn1c(CCNC(=O)C2CCCCC2)nc2ccccc21
> 60	COC(=O)CNC(=O)c1nc(-c2ccccc2OC)c2ccccn12
< 1	CC(=O)NC(c1cccs1)c1cc(Br)c2cccnc2c1O (stereo not drawn)
39.1 (≈ 120 µM)	CN(C)c1cccc(-c2ccnc(N3CCC(C(N)=O)CC3)n2)c1
< 1	Cc1ccc(S(=O)(=O)Nc2ccccc2C(=O)Nc2ncc(-c3ccccc3)o2)cc1
< 1	CCOC(=O)Cc1ccc(NC(=O)n2ncc3cc(Cl)ccc32)cc1
0.098 (≈ 0.201 µM)	O=C(Nc1ccc(S(=O)(=O)Nc2nccs2)cc1)c1cc(-c2ccccc2)nc2ccccc12
< 1	O=C(Nc1ccccc1)C1CCN(c2ncc(-c3ccc4c(c3)OCCCO4)s2)CC1
6.48 (≈ 14.8 µM)	CC(C)(C)OC(=O)NC1CCN(c2nc(-c3ccc(Br)cc3)cs2)CC1
